What was measured:
[1] = LC retention time (Atlantis T3, 5-95% MeOH gradient, 0.1% formic acid); higher = more retained / less polar
How it was run: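 Retention times refer to reference standards measured by liquid chromatography with high-resolution tandem mass spectrometry. Separation was on an Atlantis T3 C18 column (3 × 150 mm, 3 μm) at 0.3 mL/min with a 5 to 95% methanol gradient over 17.5 min, both solvents carrying 0.1% formic acid. Positive and negative electrospray were run separately on a QExactive Plus, and TraceFinder peak integration (5 ppm tolerance, at least three points per peak) was reviewed by hand.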

[2] = absolute recovery over mixed-bed multilayer solid-phase extraction; higher = better recovery; settings: enrichment method: SPE
How it was run: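 Elution from a three-layer mixed-bed cartridge used basic followed by acidic ethyl acetate/methanol, after loading either 1000 mL of unfiltered nanopure water or 100–250 mL of wastewater that had been set to pH 6.5 and glass-fibre filtered. Standards went in before or after extraction, or were left out, at 200 ng/L (water) or 1000 ng/L (wastewater), with class exceptions. Internal standards were added afterwards, and measurement was by liquid chromatography with high-resolution tandem mass spectrometry in both ionisation modes. For absolute recovery, background-corrected response ratios of pre-spiked samples were compared with those of post-spiked samples and averaged over at least two replicates.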

[3] = absolute recovery over vacuum-assisted evaporative concentration; higher = better recovery; settings: enrichment method: VEC
How it was run: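 Water samples (influent 6 mL, effluent 15 mL, surface and nanopure water 60 mL) were spiked with standards before concentration, after concentration or not at all, at 200 ng/L (nanopure/surface) or 1000 ng/L (wastewater), with class- and compound-specific adjustments. They were evaporated at 55 °C and 20 mbar to about 0.3 mL, brought to 0.4 mL and centrifuged. Internal standards were added afterwards and samples were analysed by LC-HRMS/MS. Absolute recovery was (response ratio pre − unspiked)/(post − unspiked) × 100, using averages of ≥ 2 replicates.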

Compound | LC retention time [1] [min] | absolute recovery ([2]; nanopure water) [%] | absolute recovery ([2]; surface water) [%] | absolute recovery ([2]; wastewater effluent) [%] | absolute recovery ([3]; wastewater effluent) [%] | absolute recovery ([3]; wastewater influent) [%] | absolute recovery ([2]; wastewater influent) [%]
CCC(C)(C)C(=O)OC1CC(C)C=C2C=CC(C)C(CCC3CC(O)CC(=O)O3)C21 (configuration not stated) [Simvastatin] | 22.9 |  |  |  |  |  | 
O=[N+]([O-])c1ccc(C2OC2c2ccc([N+](=O)[O-])cc2S(=O)(=O)[O-])c(S(=O)(=O)[O-])c1 (configuration not stated) [1-2-Bis-(4-4-dinitro-2-2-disulfonic acid-phenylethylenoxide] | 19.7 | 106 |  |  |  |  | 
Nc1ncnc2c1ncn2C1OC(CO)C(O)C1O (configuration not stated) [Adenosine] | 7.57 | 82 | 69.4 | 73.7 |  |  | 
CCc1cc(C)cc(CC)c1-c1c(OC(=O)C(C)(C)C)n2n(c1=O)CCOCC2 [Pinoxaden] | 21.2 |  |  |  | 51.6 | 10.7 | 
[NH3+]C(CC(=O)N1CCn2c(nnc2C(F)(F)F)C1)Cc1cc(F)c(F)cc1F (configuration not stated) [Sitagliptin] | 12.6 | 53.8 | 67.1 |  |  |  | 
COc1cc(Cc2c[nH+]c(N)nc2N)cc(OC)c1OC [Trimethoprim] | 10.5 |  |  |  | 107 | 106 | 
CC(C)(C)[NH2+]CC(O)c1ccc(O)c(CO)c1 (configuration not stated) [Albuterol] | 8.59 |  |  |  | 102 | 99.8 | 
CNC(=C[N+](=O)[O-])NCCSCc1ccc(C[NH+](C)C)o1 [Ranitidin] | 8.64 |  |  |  | 102 | 98.7 | 
O=C([O-])C(F)(F)C(F)(F)C(F)(F)C(F)(F)C(F)(F)F [PFHxA] | 18.8 |  |  |  | 95.2 | 89.4 | 
CCOC(=O)Nc1cccc(OC(=O)Nc2ccccc2)c1 [Desmedipham D] | 18.6 | 90.8 | 117 | 106 |  |  | 76.2
Cc1cc([N-]S(=O)(=O)c2ccc(N)cc2)no1 [Sulfamethoxazol] | 13 |  |  |  | 102 | 113 | 
Nc1nc(N)[nH+]c(N)n1 [Melamin] | 3.5 | 21.3 |  |  |  |  | 
CC(=O)Nc1c(C)n(C)n(-c2ccccc2)c1=O [4-Acetamidoantipyrin (=N-Acetyl-4-Aminoantipyrin, 4-AAA)] | 11.9 | 96 | 84.5 | 87.5 |  |  | 
C#CCN1C(=O)COc2cc(F)c(N3C(=O)C4=C(CCCC4)C3=O)cc21 [Flumioxazin] | 18.8 | 99.7 | 77.4 | 91.6 |  |  | 64
Nc1c(I)c(C(=O)[O-])c(I)c(C(=O)[O-])c1I [5-Amino-2-4-6-triiodoisophthalic-acid] | 10.2 |  |  |  |  |  | 
O=C(NCC1CCCC[NH2+]1)c1cc(OCC(F)(F)F)ccc1OCC(F)(F)F (configuration not stated) [Flecainid] | 14.5 |  |  |  | 105 | 106 | 
COC(=O)c1ccccc1S(N)(=O)=O [2-Aminosulfonyl-benzoicacid-methylester] | 12.9 | 118 | 101 | 102 |  |  | 91.4
O=c1ccc(=O)[nH][n-]1 [Maleic-hydrazide] | 5.88 |  | 12.8 |  |  |  | 
NC(=O)N=C(N)N [Guanylurea] | 3.13 | 42.6 |  |  |  |  | 
CC(C(=O)[O-])c1cccc(C(=O)c2ccccc2)c1 (configuration not stated) [Ketoprofen] | 18.8 |  |  |  | 110 | 96.4 | 
Oc1ccc(C(F)(F)F)cc1 [4-(Trifluoromethyl)phenol] | 18.3 | 68.5 |  | 71.8 |  |  | 95.1
CN(CC(=O)[O-])S(=O)(=O)C(F)(F)C(F)(F)C(F)(F)C(F)(F)C(F)(F)C(F)(F)C(F)(F)C(F)(F)F [N-MeFOSAA] | 23.3 |  | 80 | 95.4 |  |  | 
C[NH2+]CC(O)c1ccc(O)c(O)c1 (configuration not stated) [Epinephrine] | 3.27 | 40.2 | 12.7 | 15.9 |  |  | 26.6
CCOCN(C(=O)CS(=O)(=O)[O-])c1c(C)cccc1CC [Acetochlor-ESA] | 17.2 |  |  |  |  | 108 | 

Compound | LC retention time [1] [min] | absolute recovery ([2]; nanopure water) [%] | absolute recovery ([2]; surface water) [%] | absolute recovery ([2]; wastewater effluent) [%] | absolute recovery ([3]; wastewater effluent) [%] | absolute recovery ([3]; wastewater influent) [%] | absolute recovery ([2]; wastewater influent) [%]
CC(C)n1c(C=CC(O)CC(O)CC(=O)[O-])c(-c2ccc(F)cc2)c2ccccc21 (configuration not stated) [Fluvastatin] | 20.8 |  |  |  | 105 | 72.3 | 
CCC(=O)C(CC(C)[NH+](C)C)(c1ccccc1)c1ccccc1 (configuration not stated) [Methadon] | 15.9 |  |  |  | 105 | 100 | 
O=c1ncnc2[nH][nH]cc1-2 [Allopurinol] | 6.21 | 113 |  |  |  |  | 
O=C(CCC[NH+]1CCC(O)(c2ccc(Cl)cc2)CC1)c1ccc(F)cc1 [Haloperidol] | 15 |  |  |  | 114 | 118 | 
CNC(=O)Oc1cc(C)c(S(C)=O)c(C)c1 (configuration not stated) [Methiocarb-sulfoxide] | 13.7 | 75.7 | 83 | 77.8 |  |  | 58.2
N#Cc1nn(-c2c(Cl)cc(C(F)(F)F)cc2Cl)c(N)c1C(F)(F)F [Fipronil-desulfinyl] | 20.2 | 139 |  |  |  |  | 
C[N-]S(=O)(=O)C(F)(F)C(F)(F)C(F)(F)C(F)(F)C(F)(F)C(F)(F)C(F)(F)C(F)(F)F [N-MeFOSA] | 22.3 |  | 50.3 | 61.7 |  |  | 
O=C([O-])C[NH+](CCC[NH+](CC(=O)[O-])CC(=O)[O-])CC(=O)[O-] [1-3-Propylene-diaminotetraacetic-acid] | 3.58 |  |  |  | 85.1 | 117 | 
CCCN(CCC)C(=O)SCc1ccccc1 [Prosulfocarb] | 11.5 | 38.9 | 35.1 | 43.2 |  |  | 
Cc1c(NC=O)c(=O)n(-c2ccccc2)n1C [4-Formylaminoantipyrin (=4-FAA)] | 11.7 | 101 | 93.6 | 90.2 |  |  | 103
CC1=CC(=O)[N-]S(=O)(=O)O1 [Acesulfam] | 9.43 | 93.2 |  |  |  |  | 
CC1(C)SC2C([NH3+])C(=O)N2C1C(=O)[O-] (configuration not stated) [6-Aminopenicillanic-acid] | 4.79 |  |  |  | 90.3 | 86.7 | 
C[NH+]1CCN(C2=Nc3cc(Cl)ccc3Nc3ccccc32)CC1 [Clozapin] | 14.4 |  |  |  | 102 | 98 | 
COc1ccc(CC[NH+](C)CCCC(C#N)(c2ccc(OC)c(OC)c2)C(C)C)cc1OC (configuration not stated) [Verapamil] | 15.1 |  |  |  | 98.2 | 97.4 | 
Oc1ccc(C=Cc2cc(O)cc(O)c2)cc1 [Resveratrol] | 15.5 | 57.8 | 66.6 | 48.4 |  |  | 68.9
Nc1ccc2c(S(=O)(=O)[O-])cccc2c1S(=O)(=O)[O-] [2-amino-1-5-napthalenedisulfonic-acid] | 4.35 |  |  |  |  |  | 
CC(=O)NCCCS(=O)(=O)[O-] [Acamprosat] | 4.93 |  |  |  |  |  | 
C[NH2+]CC(O)c1cccc(O)c1 (configuration not stated) [Phenylephrine] | 5.47 | 83.2 | 82 | 78.5 |  |  | 86.1
O=C([O-])C(F)(F)C(F)(F)C(F)(F)C(F)(F)F [PFPA] | 12.4 |  |  |  |  |  | 
O=C(c1ccccc1)c1ccc(Cl)cc1 [4-Chlorobenzophenone] | 20.9 | 83.1 | 97.1 | 86.1 |  |  | 37.3
[NH3+]CCc1ccc(O)c(O)c1 [Dopamine] | 4.36 | 23.9 |  |  |  |  | 
OCC(O)C(O)C(OC1OC(CO)C(O)C(O)C1O)C(O)CO [D-Lactitol] | 2.76 |  |  |  |  |  | 
CC[N-]S(=O)(=O)C(F)(F)C(F)(F)C(F)(F)C(F)(F)C(F)(F)C(F)(F)C(F)(F)C(F)(F)F [N-EtFOSA] | 22.8 |  | 57.6 | 66.9 |  |  | 

— the supplement of paper PMC6470124
